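Method: 48-hour compound exposure of cells in 96-well plates, five concentrations, linear interpolation of endpoints. TGI marks complete inhibition of growth.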
Experiments:
Assay in all cases: inhibition of tumour cell growth, NCI panel, 48 h
[1] = test system: HOP-92 NSCLC
[2] = test system: SW-620 colon
[3] = test system: MALME-3M melanoma
[4] = test system: MDA-MB-231 breast
[5] = test system: HCT-15 colon
[6] = test system: UO-31 renal
[7] = test system: SNB-75 CNS
[8] = test system: BT-549 breast
[9] = test system: 786-0 renal
[10] = test system: CCRF-CEM leukemia
[11] = test system: MCF7 breast
[12] = test system: OVCAR-3 ovarian
[13] = test system: A498 renal
[14] = test system: A549 NSCLC
[15] = test system: HL-60(TB) leukemia
[16] = test system: NCI-H460 lung
[17] = test system: KM12 colon
[18] = test system: SF-539 CNS
[19] = test system: UACC-62 melanoma
[20] = test system: SK-MEL-2 melanoma
[21] = test system: T-47D breast
[22] = test system: SF-268 CNS
[23] = test system: MOLT-4 leukemia
[24] = test system: SF-295 CNS
[25] = test system: SK-MEL-28 melanoma
[26] = test system: NCI-H522 lung
[27] = test system: K-562 leukemia
[28] = test system: MDA-N
[29] = test system: SK-MEL-5 melanoma
[30] = test system: NCI-H226 lung
[31] = test system: CAKI-1 renal
[32] = test system: OVCAR-4 ovarian
[33] = test system: M14 melanoma
[34] = test system: HT29 colon
[35] = test system: HOP-62 NSCLC
[36] = test system: RPMI-8226 leukemia
[37] = test system: LOX IMVI melanoma
[38] = test system: SR leukemia
[39] = test system: OVCAR-8 ovarian
[40] = test system: HS 578T breast
[41] = test system: UACC-257 melanoma
[42] = test system: NCI-H23 lung
[43] = test system: IGROV1 ovarian
[44] = test system: SK-OV-3 ovarian
[45] = test system: MDA-MB-435
[46] = test system: RXF 393 renal
[47] = test system: NCI/ADR-RES ovarian
[48] = test system: COLO 205 colon
[49] = test system: OVCAR-5 ovarian
[50] = test system: U251 CNS
[51] = test system: HCT-116 colon
[52] = test system: EKVX NSCLC
[53] = test system: TK-10 renal
[54] = test system: DU-145 prostate
[55] = test system: PC-3 prostate
[56] = test system: ACHN renal
[57] = test system: SN12C renal
[58] = test system: SNB-19 CNS

## Nc1ccc2nc3n(c(=O)c2c1)CCCCC3
[1]
  TGI: > 100 µM
[2]
  TGI: > 100 µM
[3]
  TGI: > 100 µM
[4]
  TGI: > 100 µM
[5]
  TGI: > 100 µM
[6]
  TGI: > 100 µM
[7]
  TGI: > 100 µM
[8]
  TGI: > 100 µM
[9]
  TGI: > 100 µM
[10]
  TGI: > 100 µM
[11]
  TGI: > 100 µM
[12]
  TGI: > 100 µM
[13]
  TGI: > 100 µM
[14]
  TGI: > 100 µM
[15]
  TGI: > 100 µM
[16]
  TGI: > 100 µM
[17]
  TGI: > 100 µM
[18]
  TGI: > 100 µM
[19]
  TGI: > 100 µM
[20]
  TGI: > 100 µM
[21]
  TGI: > 100 µM
[22]
  TGI: > 100 µM
[23]
  TGI: > 100 µM
[24]
  TGI: > 100 µM
[25]
  TGI: > 100 µM
[26]
  TGI: > 100 µM
[27]
  TGI: > 100 µM
[28]
  TGI: > 100 µM
[29]
  TGI: > 100 µM
[30]
  TGI: > 100 µM
[31]
  TGI: > 100 µM
[32]
  TGI: > 100 µM
[33]
  TGI: > 100 µM
[34]
  TGI: > 100 µM
[35]
  TGI: > 100 µM
[36]
  TGI: > 100 µM
[37]
  TGI: > 100 µM
[38]
  TGI: > 100 µM
[39]
  TGI: > 100 µM
[40]
  TGI: > 100 µM
[41]
  TGI: > 100 µM
[42]
  TGI: > 100 µM
[43]
  TGI: > 100 µM
[44]
  TGI: > 100 µM
[45]
  TGI: > 100 µM
[46]
  TGI: > 100 µM
[47]
  TGI: > 100 µM
[48]
  TGI: > 100 µM
[49]
  TGI: > 100 µM
[50]
  TGI: > 100 µM
[51]
  TGI: > 100 µM
[52]
  TGI: > 100 µM
[53]
  TGI: > 100 µM
[54]
  TGI: > 100 µM
[55]
  TGI: > 100 µM
[56]
  TGI: > 100 µM
[57]
  TGI: > 100 µM

## CC(=O)N1N=C(c2cc(C)ccc2O)CC1c1cccc(Cl)c1 (configuration not stated)
[1]
  TGI: 37 µM
[2]
  TGI: 93.5 µM
[3]
  TGI: 62.1 µM
[4]
  TGI: 82.4 µM
[5]
  TGI: 5.51 µM
[6]
  TGI: 50.3 µM
[8]
  TGI: > 100 µM
[9]
  TGI: > 100 µM
[10]
  TGI: 57.8 µM
[11]
  TGI: 34.6 µM
[12]
  TGI: > 100 µM
[14]
  TGI: 47.4 µM
[15]
  TGI: 42.4 µM
[16]
  TGI: 61.9 µM
[17]
  TGI: > 100 µM
[18]
  TGI: 69.8 µM
[19]
  TGI: 35.2 µM
[20]
  TGI: 28.8 µM
[21]
  TGI: > 100 µM
[22]
  TGI: 50.5 µM
[23]
  TGI: 28 µM
[24]
  TGI: 65 µM
[26]
  TGI: 14.3 µM
[27]
  TGI: > 100 µM
[28]
  TGI: 5.44 µM
[29]
  TGI: 27.8 µM
[30]
  TGI: 58.8 µM
[31]
  TGI: > 100 µM
[32]
  TGI: 54.8 µM
[33]
  TGI: 84 µM
[34]
  TGI: 40.2 µM
[35]
  TGI: > 100 µM
[36]
  TGI: 26.5 µM
[37]
  TGI: 39.6 µM
[38]
  TGI: 9.42 µM
[39]
  TGI: > 100 µM
[40]
  TGI: 43 µM
[41]
  TGI: 41.6 µM
[42]
  TGI: 68.1 µM
[43]
  TGI: 8.45 µM
[44]
  TGI: 54.9 µM
[45]
  TGI: 4.05 µM
[46]
  TGI: 34.2 µM
[58]
  TGI: 28.5 µM
[47]
  TGI: 61.2 µM
[48]
  TGI: 21.9 µM
[49]
  TGI: > 100 µM
[50]
  TGI: 39.7 µM
[51]
  TGI: > 100 µM
[52]
  TGI: 91.8 µM
[53]
  TGI: 68.7 µM
[54]
  TGI: > 100 µM
[55]
  TGI: 66.1 µM
[56]
  TGI: 47.8 µM
[57]
  TGI: 77 µM

Reference: PubChem BioAssay (NCI)
